As usually defined, the IC50 is the concentration needed to halve the response being measured. The low end stands for inhibition by little substance, the high end for a need for much substance.

The text below walks through data of ChEMBL document CHEMBL6087481, “Interleukin-1 Receptor-Associated Kinase 4 (IRAK4) Degraders for Treating Inflammatory Diseases: Advances and Prospects” (J Med Chem, 2025).

Experiment [1] concerns the target T1, Interleukin-1 receptor-associated kinase 4 (Homo sapiens, UniProt Q9NWZ3).
T1 sequence (Q9NWZ3 whole entry): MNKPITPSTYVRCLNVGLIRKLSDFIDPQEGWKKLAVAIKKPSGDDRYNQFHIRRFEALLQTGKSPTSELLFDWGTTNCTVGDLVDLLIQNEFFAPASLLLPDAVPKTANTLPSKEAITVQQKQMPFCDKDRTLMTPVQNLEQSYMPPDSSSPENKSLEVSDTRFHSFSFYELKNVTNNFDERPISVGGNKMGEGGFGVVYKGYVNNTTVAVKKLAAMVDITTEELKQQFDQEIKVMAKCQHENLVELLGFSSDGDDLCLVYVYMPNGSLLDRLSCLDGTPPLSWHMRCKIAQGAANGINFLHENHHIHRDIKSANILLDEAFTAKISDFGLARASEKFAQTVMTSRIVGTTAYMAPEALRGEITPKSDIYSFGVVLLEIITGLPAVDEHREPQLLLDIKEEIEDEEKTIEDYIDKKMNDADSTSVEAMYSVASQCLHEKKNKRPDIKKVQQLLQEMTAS
The experiment in a line: Inhibition of IRAK4 (unknown origin).

Experiment [2] addresses von Hippel-Lindau disease tumor suppressor/Interleukin-1 receptor-associated kinase 4 (Homo sapiens, UniProt Q9NWZ3+P40337). The experiment in a line: PROTAC activity at VHL/IRAK4 in human HEK293T cells assessed as IRAK4 degradation measured after 24 hrs by immunoblotting analysis. The class given is cell-based. A general note: A western blot detects proteins with antibodies after separation by electrophoresis.

Experiment [3] addresses T2, Protein cereblon/Interleukin-1 receptor-associated kinase 4 (Mus musculus, UniProt Q8C7D2+Q8R4K2).
T2 sequence (Q8C7D2 whole entry): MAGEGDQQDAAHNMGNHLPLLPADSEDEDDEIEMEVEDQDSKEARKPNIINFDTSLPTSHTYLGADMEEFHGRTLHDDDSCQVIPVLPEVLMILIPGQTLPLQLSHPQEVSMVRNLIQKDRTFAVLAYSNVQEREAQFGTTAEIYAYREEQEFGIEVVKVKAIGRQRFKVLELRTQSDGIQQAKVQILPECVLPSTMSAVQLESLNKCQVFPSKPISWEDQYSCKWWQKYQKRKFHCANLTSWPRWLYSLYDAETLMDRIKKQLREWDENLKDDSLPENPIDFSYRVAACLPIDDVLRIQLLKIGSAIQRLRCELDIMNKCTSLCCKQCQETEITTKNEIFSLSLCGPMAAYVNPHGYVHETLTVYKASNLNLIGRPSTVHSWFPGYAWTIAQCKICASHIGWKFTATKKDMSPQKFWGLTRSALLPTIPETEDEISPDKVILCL
T2 sequence (Q8R4K2 whole entry): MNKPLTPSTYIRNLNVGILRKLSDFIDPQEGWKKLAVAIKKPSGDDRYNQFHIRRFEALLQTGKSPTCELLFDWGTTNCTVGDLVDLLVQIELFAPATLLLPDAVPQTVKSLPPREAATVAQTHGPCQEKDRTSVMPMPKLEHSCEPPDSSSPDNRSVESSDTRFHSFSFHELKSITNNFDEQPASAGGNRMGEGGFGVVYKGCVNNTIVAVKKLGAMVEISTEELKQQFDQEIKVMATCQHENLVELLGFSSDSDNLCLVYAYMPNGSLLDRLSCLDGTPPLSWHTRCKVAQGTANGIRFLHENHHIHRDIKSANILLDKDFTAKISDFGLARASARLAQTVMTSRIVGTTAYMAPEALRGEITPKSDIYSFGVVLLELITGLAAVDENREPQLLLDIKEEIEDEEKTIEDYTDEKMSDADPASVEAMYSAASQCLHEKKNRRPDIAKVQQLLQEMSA
The experiment in a line: PROTAC activity at IRAK4/CRBN in mouse RAW264.7 cells assessed as reduction in IRAK4 level incubated for 12 hrs by Western blot analysis. It counts as cell-based.

Chain of von Hippel-Lindau disease tumor suppressor/Interleukin-1 receptor-associated kinase 4 (P40337 whole entry, one chain of several): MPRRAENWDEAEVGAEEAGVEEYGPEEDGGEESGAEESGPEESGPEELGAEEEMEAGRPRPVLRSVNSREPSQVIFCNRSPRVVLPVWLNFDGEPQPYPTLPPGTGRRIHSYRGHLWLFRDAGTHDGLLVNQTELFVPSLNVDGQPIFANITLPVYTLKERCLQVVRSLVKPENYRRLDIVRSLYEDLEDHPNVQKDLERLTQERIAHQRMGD

For `CC(C)Nc1cc(-n2ccc3cc(C#N)cnc32)ncc1C(=O)N[C@H]1CC[C@H](C(=O)NC2CC2)CC1`, in experiment [1], the IC50 stood at 0.003 µM. For the compound `CC(C)Nc1cc(-n2ccc3cc(C#N)cnc32)ncc1C(=O)N[C@H]1CC[C@H](C(=O)NCCOCCNC(=O)Oc2cccc3c2C(=O)N(C2CCC(=O)NC2=O)C3=O)CC1` (stereo partly drawn), the DC50 in experiment [2] was determined as 0.405 µM. As to `COc1cc(N2CCN(C(=O)CCOCC#Cc3ccc4c(c3)C(=O)N(C3CCC(=O)NC3=O)C4=O)CC2)ccc1NC(=O)c1cccc(-c2ccn[nH]2)n1` (stereo not drawn), in experiment [3], the DC50 turned out to be 0.0473 µM.
